Experimental data from US11078207B2, “Substituted pyrrolo[2,3-d]pyrimidines as HER2 inhibitors” (TAIHO PHARMACEUTICAL CO., LTD., priority 2019, dated 2021).

Key:
[1] = target: T1, HER2 (Homo sapiens, UniProt P04626); assay: Inhibitory effect (in vitro) on HER2 phosphorylation activity; type: biochemical; details: recombinant human HER2, ATP 5 μM, 25° C. 30 minutes
T1 construct: purchased Carna Biosciences, Inc
Excerpt: In order to determine conditions for a method of measuring the in vitro inhibitory activity of a compound against HER2 phosphorylation activity, based on the report regarding a HER2 kinase reaction using, as a substrate, a peptide having the same sequence (5-FAM-[…]-CONH2) as that of ProfilerPro Peptide 22 of PerkinElmer (Xie H et al., PLoS One. 2011; 6(7): e21487), ProfilerPro Peptide 22 was used as a substrate. A purified recombinant human HER2 protein used in the present test was purchased from Carna Biosciences, Inc. Upon the measurement of the inhibitory activity of the compound, first, the compound of the present invention was diluted stepwise with dimethyl sulfoxide (DMSO). […] To the reaction solution, EDTA was added to a final concentration of 30 mM, so as to terminate the reaction. Finally, using LabChip (registered trademark) EZ Reader II (PerkinElmer), an unphosphorylated substrate peptide (S) and a phosphorylated peptide (P) were separated and detected according to microchannel capillary electrophoresis.

[2] = target: HER2 exon 20 insertion mutant (HER2ex20insYVMA, A775_G776insYVMA) (Homo sapiens, UniProt P04626, DUP772-775); assay: Inhibitory action (in vitro) against HER2 exon 20 insertion mutant phosphorylation activity; type: biochemical; details: 30 min pre-incubation, ATP 200 μM, 25° C. 220 minutes
HER2 exon 20 insertion mutant (HER2ex20insYVMA, A775_G776insYVMA), sequence (P04626 with tags, fused parts or gaps DUP772-775): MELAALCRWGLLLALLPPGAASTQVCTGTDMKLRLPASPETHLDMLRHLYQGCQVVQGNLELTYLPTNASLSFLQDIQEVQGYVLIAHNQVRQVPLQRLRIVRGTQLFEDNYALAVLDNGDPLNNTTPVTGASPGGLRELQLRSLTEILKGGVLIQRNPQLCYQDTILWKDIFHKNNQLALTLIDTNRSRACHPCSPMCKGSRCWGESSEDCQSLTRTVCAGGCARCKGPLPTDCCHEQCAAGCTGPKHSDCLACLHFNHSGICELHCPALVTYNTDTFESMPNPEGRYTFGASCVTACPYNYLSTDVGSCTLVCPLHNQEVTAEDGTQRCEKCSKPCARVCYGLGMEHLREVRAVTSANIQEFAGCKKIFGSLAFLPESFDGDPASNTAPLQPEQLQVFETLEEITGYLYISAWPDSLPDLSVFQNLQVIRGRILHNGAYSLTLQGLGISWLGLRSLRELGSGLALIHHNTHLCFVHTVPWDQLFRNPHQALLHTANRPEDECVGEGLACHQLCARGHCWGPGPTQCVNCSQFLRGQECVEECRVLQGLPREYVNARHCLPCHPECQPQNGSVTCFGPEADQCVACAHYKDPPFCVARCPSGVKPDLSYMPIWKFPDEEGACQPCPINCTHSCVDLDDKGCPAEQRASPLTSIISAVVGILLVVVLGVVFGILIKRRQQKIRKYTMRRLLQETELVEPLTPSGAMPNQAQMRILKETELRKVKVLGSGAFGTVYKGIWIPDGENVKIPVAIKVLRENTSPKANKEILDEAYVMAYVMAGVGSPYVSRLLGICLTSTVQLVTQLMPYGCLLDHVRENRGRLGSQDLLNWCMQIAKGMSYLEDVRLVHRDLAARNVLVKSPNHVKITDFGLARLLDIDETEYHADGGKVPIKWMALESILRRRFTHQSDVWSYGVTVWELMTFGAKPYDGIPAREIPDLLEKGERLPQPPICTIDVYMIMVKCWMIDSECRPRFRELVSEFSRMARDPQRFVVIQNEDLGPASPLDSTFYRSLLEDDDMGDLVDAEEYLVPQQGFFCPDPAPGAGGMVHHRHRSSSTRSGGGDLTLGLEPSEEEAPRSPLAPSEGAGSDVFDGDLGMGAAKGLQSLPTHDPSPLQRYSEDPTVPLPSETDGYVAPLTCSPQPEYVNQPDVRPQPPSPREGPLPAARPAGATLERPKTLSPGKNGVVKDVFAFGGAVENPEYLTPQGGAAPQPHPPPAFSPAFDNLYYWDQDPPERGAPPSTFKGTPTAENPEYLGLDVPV
Excerpt: In order to determine conditions for a method of measuring the in vitro inhibitory activity of a compound against HER2 exon 20 insertion mutant phosphorylation activity, as in the case of HER2, ProfilerPro Peptide 22 was used as a substrate. A purified recombinant human HER2 exon 20 insertion mutant (A775_G776insYVMA) protein is shown in SEQ ID NO: 7, and was purchased from SignalChem. Upon the measurement of the inhibitory activity of the compound, first, the compound of the present invention was diluted stepwise with dimethyl sulfoxide (DMSO). Subsequently, the HER2 exon 20 insertion mutant protein and the compound of the present invention in DMSO solution (final concentration of DMSO: 5%) were added into a buffer for the kinase reaction (13.5 mM Tris (pH 7.5), 2 mM dithiothreitol, and 0.009% Tween 20), and the obtained mixture was then pre-incubated at 25° C. for 30 minutes. Thereafter, the substrate peptide (final concentration: 1 μM), manganese chloride (final concentration: 25 mM), magnesium chloride (final concentration: 20 mM), and ATP (final concentration: 200 μM) were added into the reaction mixture, and the thus obtained mixture was then incubated at 25° C. for 220 minutes, so that the kinase reaction was carried out. To the reaction solution, EDTA was added to a final concentration of 30 mM, so as to terminate the reaction. Finally, using LabChip (registered trademark) EZ Reader II (PerkinElmer), an unphosphorylated substrate peptide (S) and a phosphorylated peptide (P) were separated and detected according to microchannel capillary electrophoresis.

[3] = system: SK-BR-3 cells; assay: Growth inhibitory activity against HER2 expressing cell line SK-BR-3; type: cell-based; details: Homo sapiens, SK-BR-3, 72 h; 3 days, CellTiter-Glo 2.0
Protocol: SK-BR-3 cells as a HER2 overexpressing human breast cancer cell line were suspended in a McCoy's 5a medium (manufactured by Life Technologies) supplemented with 10% fetal bovine serum. The cell suspension was seeded in each well of a 384-well flat-bottom microplate, and was then cultured in a 5% carbon dioxide gas-containing culture vessel at 37° C. for 1 day. Thereafter, the compound of the present invention was dissolved in DMSO, and the compound was diluted to 500 times the final concentration in DMSO. The compound in the DMSO solution was diluted with DMSO solution or the medium used in the suspension of the cells, and the obtained solution was then added to each well of the culture plate so that the final concentration of DMSO was 0.2%. The obtained mixture was further cultured in the 5% carbon dioxide gas-containing culture vessel at 37° C. for 3 days. After completion of the culture for 3 days in the presence of the compound, the cells were counted using CellTiter-Glo 2.0 (manufactured by Promega), and the growth inhibition percentage was then calculated according to the following equation. […] Growth inhibitory percentage (%)=(C−T)/(C)×100 T: Emission intensity from the well to which the test compound was added C: Emission intensity from the well to which the test compound was not added

[4] = target: Ba/F3-HER2insYVMA cells (Homo sapiens, UniProt P04626, DUP772-775, cells depend on it); assay: Growth inhibitory activity against HER2 exon 20 insertion mutant expressing cell line; type: cell-based, mouse; details: 3 days, CellTiter-Glo 2.0, read-out: HER2ex20insYVMA cell growth inhibitory activity IC50 value
Ba/F3-HER2insYVMA cells, sequence (P04626 with tags, fused parts or gaps DUP772-775): as above
Protocol: Growth inhibitory activity against the HER2 exon 20 insertion mutant was measured using Ba/F3 cells that were a mouse B lymphocyte precursor cell line, into which a human HER2 exon 20 insertion mutant gene had been introduced. The Ba/F3 cells were maintained in an RPMI-1640 medium (Thermo Fisher Scientific) supplemented with 10% fetal bovine serum (FBS), 100 U/mL penicillin, 100 μg/mL streptomycin (Thermo Fisher Scientific) and 1 ng/mL mouse interleukin-3 (mIL-3) (CST).
Upon evaluation of cell growth inhibitory activity, the Ba/F3-HER2insYVMA cells were suspended in an RPMI-1640 medium supplemented with 10% FBS, 100 U/mL penicillin, and 100 μg/mL streptomycin. The cell suspension was seeded in each well of a 96-well flat-bottom microplate, and was then cultured in a 5% carbon dioxide gas-containing culture vessel at 37° C. for 1 day. The compound of the present invention was dissolved in DMSO, and was then diluted with DMSO or the medium used in the suspension of the cells. The obtained solution was then added to each well of the culture plate, so that the final concentration of DMSO became 0.2%. The obtained mixture was further cultured in the 5% carbon dioxide gas-containing culture vessel at 37° C. for 3 days. After completion of the culture for 3 days in the presence of the compound, the cells were counted using CellTiter-Glo 2.0 (manufactured by Promega), and the growth inhibition percentage was then calculated according to the following equation. […] Growth inhibitory percentage (%)=(C−T)/(C)×100 T: Emission intensity from the well to which the test compound was added C: Emission intensity from the well to which the test compound was not added

[5] = Evaluation of oral absorbability; type: in vivo, BALB/cA mice; details: oral 50 mg/kg/day; for AUC(0-t): mouse, plasma, BALB/cA mice
Protocol: The compound of the present invention was suspended or dissolved in 0.5% HPMC aqueous solution and 0.1 N hydrochloric acid, and the obtained suspension or solution was orally administered to BALB/cA mice (CLEA Japan, Inc.) at a dose of 50 mg/kg/day. At 0.5, 1, 2, 4 and 6 hours after completion of the oral administration, blood was collected from the facial vein over time, so as to obtain plasma. The concentration of the compound in the obtained plasma was measured by LC-MS/MS, and the oral absorbability of the present compound was evaluated.

[6] = Evaluation of brain penetration properties; type: in vivo, BALB/cA mice; details: 0.5 hours after oral 50 mg/kg/day
[7] = system: NCI-N87 cells; assay: Growth inhibitory activity against HER2 expressing cell line NCI-N87; type: cell-based; details: Homo sapiens, NCI-N87, 72 h; 3 days, CellTiter-Glo 2.0
Protocol: NCI-N87 cells as a HER2 overexpressing human stomach cancer cell line (American Type Culture Collection, Cat No. ATCC (registered trademark) CRL-5822) were suspended in an RPMI640 medium (Wako Pure Chemical Industries, Ltd.) supplemented with 10% fetal bovine serum. Subsequently, the cell suspension was seeded in each well of a 96-well flat-bottom microplate, and was then cultured in a 5% carbon dioxide gas-containing culture vessel at 37° C. for 1 day. Thereafter, the compound of the present invention was dissolved in DMSO, and the compound was diluted to 1000 times the final concentration in DMSO. The compound in the DMSO solution was diluted with the medium used in the suspension of the cells, and the obtained solution was then added to each well of the culture plate, so that the final concentration of DMSO became 0.1%. Regarding a control well, DMSO was diluted with the medium used in the suspension of the cells, and the obtained solution was then added to each well of the culture plate, so that the final concentration of DMSO became 0.1%. After addition of a drug solution, the obtained mixture was further cultured in the 5% carbon dioxide gas-containing culture vessel at 37° C. for 3 days. After completion of the culture for 3 days in the presence of the compound, the cells were counted using CellTiter-Glo 2.0 (manufactured by Promega) in accordance with the protocols recommended by Promega. The growth inhibition percentage was calculated according to the following equation. […] Growth inhibitory percentage (%)=(C−T)/(C)×100 T: Emission intensity from the well to which the test compound was added C: Emission intensity from the well to which the test compound was not added

T1 sequence (P04626 23-1255): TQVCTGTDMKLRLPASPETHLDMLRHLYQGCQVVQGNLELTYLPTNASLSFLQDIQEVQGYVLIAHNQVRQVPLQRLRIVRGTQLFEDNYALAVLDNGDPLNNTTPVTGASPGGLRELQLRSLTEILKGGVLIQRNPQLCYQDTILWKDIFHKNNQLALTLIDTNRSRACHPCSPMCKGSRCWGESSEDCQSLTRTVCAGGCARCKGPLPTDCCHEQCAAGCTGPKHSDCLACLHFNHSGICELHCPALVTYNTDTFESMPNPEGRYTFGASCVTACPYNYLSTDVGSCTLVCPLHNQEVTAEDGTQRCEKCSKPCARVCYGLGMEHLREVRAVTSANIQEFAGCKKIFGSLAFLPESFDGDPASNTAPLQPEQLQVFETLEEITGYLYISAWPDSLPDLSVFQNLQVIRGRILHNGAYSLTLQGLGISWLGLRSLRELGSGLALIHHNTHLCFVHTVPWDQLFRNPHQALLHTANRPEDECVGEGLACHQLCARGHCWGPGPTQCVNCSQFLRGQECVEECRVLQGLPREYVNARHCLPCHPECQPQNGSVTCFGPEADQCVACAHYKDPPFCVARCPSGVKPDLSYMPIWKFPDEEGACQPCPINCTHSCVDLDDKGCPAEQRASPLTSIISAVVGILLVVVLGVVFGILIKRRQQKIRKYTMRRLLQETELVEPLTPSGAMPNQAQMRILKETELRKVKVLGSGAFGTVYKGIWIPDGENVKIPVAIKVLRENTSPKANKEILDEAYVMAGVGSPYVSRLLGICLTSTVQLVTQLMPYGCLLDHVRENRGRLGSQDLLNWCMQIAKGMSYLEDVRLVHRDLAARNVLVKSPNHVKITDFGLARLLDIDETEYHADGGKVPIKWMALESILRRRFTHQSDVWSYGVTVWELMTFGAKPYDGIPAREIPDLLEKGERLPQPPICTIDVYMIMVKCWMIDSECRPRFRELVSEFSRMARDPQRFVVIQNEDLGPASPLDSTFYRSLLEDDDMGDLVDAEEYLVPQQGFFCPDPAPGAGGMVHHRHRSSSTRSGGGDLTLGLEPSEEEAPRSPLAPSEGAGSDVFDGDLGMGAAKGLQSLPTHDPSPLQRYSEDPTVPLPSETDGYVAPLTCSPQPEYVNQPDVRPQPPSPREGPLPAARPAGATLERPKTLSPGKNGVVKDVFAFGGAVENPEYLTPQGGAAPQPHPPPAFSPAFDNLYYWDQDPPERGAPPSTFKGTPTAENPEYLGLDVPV

In the case of `CC#Cc1c(C(=O)Nc2ccc(COC)cc2)c2c(N)ncnc2n1C1(C)CC1` [Comp. Ex. 1, 4-Amino-N-(4-(methoxymethyl)phenyl)-7-(1-methylcyclopropyl)-6-(prop-1-yn-1-yl)-7H-pyrrolo[2,3-d]pyrimidine-5-carboxamide, reference compound], the IC50 [1] is reported as > 10 µM, the IC50 [2] is reported as > 10 µM and the IC50 [3] is reported as > 10 µM. The GI50 [4] was > 10 µM.

Work on `C=CC(=O)N1C[C@H](n2nc(C(=O)Nc3ccc(CC(=O)N(C)C)c(C)c3C)c3c(N)ncnc32)C[C@@H]1C` [Comp. Ex. 2, 1-((3R,5S)-1-acryloyl-5-methylpyrrolidin-3-yl)-4-amino-N-(4-(2-(dimethylamino)-2-oxoethyl)-2,3-dimethylphenyl)-1H-pyrazolo[3,4-d]pyrimidine-3-carboxamide, reference compound] yielded an IC50 [1] of 0.019 µM, an IC50 [2] of 0.0044 µM and an IC50 [3] of 0.025 µM. The GI50 [4] was 1.9 µM, the AUC(0-t) [5] was 1.5 µM·h and the “oral absorbability attenuated versus the compound of the present invention” value ([5]; mice) was “more than 4 times”. For the same compound, the “brain concentration attenuated versus the compound of the present invention” value ([6]; mice) was “more than 80 times”, the Kp at 0.5 h ([6]; mouse, brain, BALB/cA mice, read-out: Kp value (Compound concentration in brain/plasma)) was 0.005 and the concentration at 0.5 h ([6]; mouse, plasma, BALB/cA mice, read-out: Compound concentration in plasma) was 1.6 µM.

`C=CC(=O)N1C[C@H](n2c(C#CC)c(C(=O)NCC3CCCCC3)c3c(N)ncnc32)C[C@@H]1C` [Comp. Ex. 3, 7-((3R,5S)-1-acryloyl-5-methylpyrrolidin-3-yl)-4-amino-N-(cyclohexylmethyl)-6-(prop-1-yn-1-yl)-7H-pyrrolo[2,3-d]pyrimidine-5-carboxamide] gave an IC50 [1] of 0.63 µM, an IC50 [2] of 0.38 µM and an IC50 [3] of 4.3 µM. For the same compound, the GI50 [4] was 3.4 µM.

With `C=CC(=O)N1C[C@H](n2c(C#CC)c(C(=O)NCc3ccccc3C)c3c(N)ncnc32)C[C@@H]1C` [Comp. Ex. 4, 7-((3R,5S)-1-acryloyl-5-methylpyrrolidin-3-yl)-4-amino-N-(2-methylbenzyl)-6-(prop-1-yn-1-yl)-7H-pyrrolo[2,3-d]pyrimidine-5-carboxamide] the IC50 [1] was 0.054 µM, the IC50 [2] was 0.011 µM and the IC50 [3] was 0.34 µM. The GI50 [4] was 0.9 µM.

With `C=CC(=O)N1C[C@H](n2c(C#CC)c(C(=O)N(C)[C@H](C)c3ccccc3)c3c(N)ncnc32)C[C@@H]1C` [Comp. Ex. 5, 7-((3R,5S)-1-acryloyl-5-methylpyrrolidin-3-yl)-4-amino-N-methyl-N—((R)-1-phenylethyl)-6-(prop-1-yn-1-yl)-7H-pyrrolo[2,3-d]pyrimidine-5-carboxamide] the IC50 [1] was 0.13 µM, the IC50 [2] was 0.014 µM and the IC50 [3] was 0.4 µM. It also gave a GI50 [4] of 1.3 µM.

In the case of `CC#Cc1c(C(=O)N[C@H](C)c2ccccc2)c2c(N)ncnc2n1[C@@H]1C[C@H](C)N(C(=O)/C=C/C)C1` [Comp. Ex. 6, 4-Amino-7-((3R,5S)-1-((E)-but-2-enoyl)-5-methylpyrrolidin-3-yl)-N—((R)-1-phenylethyl)-6-(prop-1-yn-1-yl)-7H-pyrrolo[2,3-d]pyrimidine-5-carboxamide], the IC50 [1] is reported as 0.39 µM, the IC50 [2] is reported as > 10 µM and the IC50 [3] is reported as 3 µM. It also gave a GI50 [4] of 4.1 µM.

`C=CC(=O)N1C[C@H](n2c(C#CC)c(C(=O)N[C@H](C)c3ccc(F)cc3F)c3c(N)ncnc32)C[C@@H]1C` [Example 7, 7-((3R,5S)-1-acryloyl-5-methylpyrrolidin-3-yl)-4-amino-N—((R)-1-(2,4-difluorophenyl)ethyl)-6-(prop-1-yn-1-yl)-7H-pyrrolo[2,3-d]pyrimidine-5-carboxamide] showed an IC50 [1] of 0.0049 µM, an IC50 [2] of 0.00039 µM and an IC50 [3] of 0.012 µM. For the same compound, the GI50 [4] was 0.04 µM, the IC50 [7] was 0.0111 µM and the AUC(0-t) [5] was 15 µM·h.

Work on `C=CC(=O)N1C[C@H](n2c(C#CC(C)C)c(C(=O)NC(C)(C)c3ccccc3F)c3c(N)ncnc32)C[C@@H]1C` [Example 15, 7-((3R,5S)-1-acryloyl-5-methylpyrrolidin-3-yl)-4-amino-N-(2-(2-fluorophenyl)propan-2-yl)-6-(3-methylbut-1-yn-1-yl)-7H-pyrrolo[2,3-d]pyrimidine-5-carboxamide] yielded an IC50 [1] of 0.0046 µM, an IC50 [2] of 0.00042 µM and an IC50 [3] of 0.007 µM. It also gave a GI50 [4] of 0.04 µM, an IC50 [7] of 0.0116 µM and an AUC(0-t) [5] of 34 µM·h.
